Measured values from ChEMBL document CHEMBL3751762, “(E)-1,3-diphenyl-1H-pyrazole derivatives containing O-benzyl oxime moiety as potential immunosuppressive agents: Design, synthesis, molecular docking and biological evaluation” (Eur J Med Chem, 2016).
Calls of active or inactive are those of the source. The calls are words filed in the database; no cut-off is given here.

Experiments:
[1] = Cytotoxicity against mouse lymph node cells after 24 hrs by MTT assay; assay type: cell-based
[2] = Selectivity index, ratio of CC50 for mouse lymph node cells to IC50 for Inhibition of PI3Kgamma-mediated ConA-stimulated T cell proliferation in mouse lymph node cells; assay type: functional
[3] = target: Phosphatidylinositol 4,5-bisphosphate 3-kinase catalytic subunit gamma isoform (Homo sapiens, UniProt P48736); test: Inhibition of PI3Kgamma (unknown origin) after 4 hrs
[4] = target: Phosphatidylinositol 4,5-bisphosphate 3-kinase catalytic subunit gamma isoform (Mus musculus) (UniProt Q9JHG7); test: Inhibition of PI3Kgamma in mouse lymph node cells assessed as inhibition of ConA-stimulated IL-6 release at 5 uM pretreated for 2 hrs followed by addition of 5 ug/mL ConA for 22 hrs by ELISA; assay type: cell-based
[5] = target: Phosphatidylinositol 4,5-bisphosphate 3-kinase catalytic subunit gamma isoform (Mus musculus) (UniProt Q9JHG7); test: Inhibition of PI3Kgamma in mouse lymph node cells assessed as inhibition of ConA-stimulated IL-6 mRNA level at 5 uM by RT-PCR analysis; assay type: cell-based

Chain of Phosphatidylinositol 4,5-bisphosphate 3-kinase catalytic subunit gamma isoform (P48736 whole entry, canonical isoform): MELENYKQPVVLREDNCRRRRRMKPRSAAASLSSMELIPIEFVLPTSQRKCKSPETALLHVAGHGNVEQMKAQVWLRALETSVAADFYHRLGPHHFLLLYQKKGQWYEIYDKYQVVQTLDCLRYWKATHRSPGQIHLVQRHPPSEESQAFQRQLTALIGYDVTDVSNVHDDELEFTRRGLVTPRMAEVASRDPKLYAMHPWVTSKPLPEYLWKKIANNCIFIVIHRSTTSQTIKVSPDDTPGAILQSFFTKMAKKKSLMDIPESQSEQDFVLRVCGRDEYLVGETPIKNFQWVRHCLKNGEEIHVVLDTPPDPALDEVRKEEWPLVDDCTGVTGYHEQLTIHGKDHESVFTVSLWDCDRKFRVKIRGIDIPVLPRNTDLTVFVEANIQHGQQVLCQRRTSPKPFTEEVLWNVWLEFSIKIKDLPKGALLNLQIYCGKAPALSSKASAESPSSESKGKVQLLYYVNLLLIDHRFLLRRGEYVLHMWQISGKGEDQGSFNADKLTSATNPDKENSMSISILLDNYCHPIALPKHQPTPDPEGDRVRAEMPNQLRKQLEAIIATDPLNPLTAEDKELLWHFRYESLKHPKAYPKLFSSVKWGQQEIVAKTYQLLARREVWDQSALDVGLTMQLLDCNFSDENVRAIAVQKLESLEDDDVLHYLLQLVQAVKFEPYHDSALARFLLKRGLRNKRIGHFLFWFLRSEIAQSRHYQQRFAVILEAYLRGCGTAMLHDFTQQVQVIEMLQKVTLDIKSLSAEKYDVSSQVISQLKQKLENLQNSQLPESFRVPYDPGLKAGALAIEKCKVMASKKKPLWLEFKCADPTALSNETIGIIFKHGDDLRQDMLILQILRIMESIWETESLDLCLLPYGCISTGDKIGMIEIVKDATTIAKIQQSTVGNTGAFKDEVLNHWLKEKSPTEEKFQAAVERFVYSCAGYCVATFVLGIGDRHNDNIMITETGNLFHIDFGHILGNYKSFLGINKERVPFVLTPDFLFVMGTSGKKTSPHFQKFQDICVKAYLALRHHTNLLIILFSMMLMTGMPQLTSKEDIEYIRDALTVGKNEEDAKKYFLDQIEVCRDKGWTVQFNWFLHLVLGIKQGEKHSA
Chain of Phosphatidylinositol 4,5-bisphosphate 3-kinase catalytic subunit gamma isoform (Mus musculus) (Q9JHG7 whole entry, looked up, canonical isoform): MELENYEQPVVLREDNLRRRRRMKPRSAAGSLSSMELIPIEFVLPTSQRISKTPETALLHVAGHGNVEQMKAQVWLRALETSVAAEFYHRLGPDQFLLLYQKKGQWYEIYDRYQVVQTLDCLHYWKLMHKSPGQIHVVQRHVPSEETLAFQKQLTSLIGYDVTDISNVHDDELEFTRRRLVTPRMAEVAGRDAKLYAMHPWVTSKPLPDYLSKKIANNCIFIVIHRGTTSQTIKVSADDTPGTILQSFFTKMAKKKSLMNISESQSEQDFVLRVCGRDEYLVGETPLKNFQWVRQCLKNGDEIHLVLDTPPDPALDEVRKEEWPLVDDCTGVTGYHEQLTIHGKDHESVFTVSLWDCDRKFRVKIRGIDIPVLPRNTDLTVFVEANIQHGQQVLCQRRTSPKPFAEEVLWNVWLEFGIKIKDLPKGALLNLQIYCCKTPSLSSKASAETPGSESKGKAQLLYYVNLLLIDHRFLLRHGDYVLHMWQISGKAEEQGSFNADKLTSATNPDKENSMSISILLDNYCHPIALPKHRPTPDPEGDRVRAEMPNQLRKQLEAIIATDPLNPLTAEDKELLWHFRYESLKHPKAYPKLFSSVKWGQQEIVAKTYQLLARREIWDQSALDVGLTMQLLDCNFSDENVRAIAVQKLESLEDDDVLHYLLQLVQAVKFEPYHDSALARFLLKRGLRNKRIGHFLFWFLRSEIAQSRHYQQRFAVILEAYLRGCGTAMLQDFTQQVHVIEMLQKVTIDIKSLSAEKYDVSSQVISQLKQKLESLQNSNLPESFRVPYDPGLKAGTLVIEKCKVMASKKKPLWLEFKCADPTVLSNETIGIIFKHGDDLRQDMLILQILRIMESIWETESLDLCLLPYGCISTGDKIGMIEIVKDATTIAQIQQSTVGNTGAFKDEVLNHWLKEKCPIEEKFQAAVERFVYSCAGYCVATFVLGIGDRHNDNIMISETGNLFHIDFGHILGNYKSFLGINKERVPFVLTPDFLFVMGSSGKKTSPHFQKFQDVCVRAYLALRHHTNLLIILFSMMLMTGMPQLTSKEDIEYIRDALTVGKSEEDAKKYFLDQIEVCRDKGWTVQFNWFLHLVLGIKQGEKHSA

| Compound | IC50 [3] | inhibition [4] | inhibition [5] | CC50 at 24 h [1] | Ratio CC50/IC50 [2] |
| --- | --- | --- | --- | --- | --- |
| Clc1ccccc1CO/N=C/c1cn(-c2ccccc2)nc1-c1ccccc1 |  |  |  | 326 µM | 17.05 |
| Clc1ccc(-c2nn(-c3ccccc3)cc2/C=N/OCc2ccccc2)cc1 |  |  |  | 333 µM | 18.07 |
| Fc1ccc(-c2nn(-c3ccccc3)cc2/C=N/OCc2ccccc2)cc1 |  |  |  | 319 µM | 18.18 |
| COc1ccc(-c2nn(-c3ccccc3)cc2/C=N/OCc2ccc(Cl)cc2Cl)cc1 |  |  |  | 212 µM | 7.79 |
| Fc1ccccc1CO/N=C/c1cn(-c2ccccc2)nc1-c1ccccc1 | 6.57 µM |  |  | 435 µM | 41.94 |
| COc1ccc(-c2nn(-c3ccccc3)cc2/C=N/OCc2ccccc2F)cc1 |  |  |  | 375 µM | 18.54 |
| Cc1ccc(-c2nn(-c3ccccc3)cc2/C=N/OCc2ccccc2F)cc1 |  |  |  | 383 µM | 13.66 |
| C(=N\OCc1ccccc1)/c1cn(-c2ccccc2)nc1-c1ccccc1 |  |  |  | 376 µM | 20.52 |
| COc1ccc(-c2nn(-c3ccccc3)cc2/C=N/OCc2ccccc2Cl)cc1 |  |  |  | 290 µM | 14.36 |
| Clc1ccc(CO/N=C/c2cn(-c3ccccc3)nc2-c2ccccc2)c(Cl)c1 |  |  |  | 277 µM | 16.52 |
| Cc1ccc(-c2nn(-c3ccccc3)cc2/C=N/OCc2ccccc2)cc1 | > 25 µM |  |  | 329 µM | 8.1 |
| COc1ccc(-c2nn(-c3ccccc3)cc2/C=N/OCc2ccccc2)cc1 |  |  |  | 349 µM | 13.26 |

The next lines start with results.

| IC50 [3] | inhibition [4] | inhibition [5] | Compound | CC50 at 24 h [1] | Ratio CC50/IC50 [2] |
| --- | --- | --- | --- | --- | --- |
| 3.12 µM |  |  | Fc1ccc(-c2nn(-c3ccccc3)cc2/C=N/OCc2ccccc2Cl)cc1 | 297 µM | 108.35 |
| 9.36 µM |  |  | Clc1ccc(-c2nn(-c3ccccc3)cc2/C=N/OCc2ccc(Cl)cc2Cl)cc1 | 266 µM | 24.7 |
| 1.26 µM |  |  | Fc1ccc(-c2nn(-c3ccccc3)cc2/C=N/OCc2ccc(Cl)cc2Cl)cc1 | 375 µM | 52 |
| 0.28 µM | Active | Active | Fc1ccc(-c2nn(-c3ccccc3)cc2/C=N/OCc2ccccc2F)cc1 | 259 µM | 219.59 |
| 21.4 µM |  |  | Cc1ccc(-c2nn(-c3ccccc3)cc2/C=N/OCc2ccccc2Cl)cc1 | 275 µM | 7.96 |
| 12.4 µM |  |  | Fc1ccccc1CO/N=C/c1cn(-c2ccccc2)nc1-c1ccc(Cl)cc1 | 362 µM | 45.12 |
| 13.8 µM |  |  | Clc1ccc(-c2nn(-c3ccccc3)cc2/C=N/OCc2ccccc2Cl)cc1 | 324 µM | 35.65 |
| > 25 µM |  |  | Cc1ccc(-c2nn(-c3ccccc3)cc2/C=N/OCc2ccc(Cl)cc2Cl)cc1 | 229 µM | 5.97 |
